From PubChem BioAssay (NCI)
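These data come from cells grown in 96-well plates and exposed to compound for 48 hours at five concentrations. GI50: concentration for 50% inhibition of growth. TGI: concentration producing complete growth inhibition.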

Key:
Assay in all cases: NCI-60 cell line screen, 48 h
[1] = system: HCC-2998 colon
[2] = system: SNB-75 CNS
[3] = system: CAKI-1 renal
[4] = system: SN12C renal
[5] = system: RXF 393 renal
[6] = system: SR leukemia
[7] = system: SK-MEL-2 melanoma
[8] = system: K-562 leukemia
[9] = system: UACC-257 melanoma
[10] = system: PC-3 prostate

SMILES | TGI [1] | TGI [2] | TGI [3] | TGI [4] | TGI [5] | TGI [6] | TGI [7] | TGI [8] | TGI [9] | GI50 [1] | GI50 [2] | GI50 [3] | GI50 [4] | GI50 [5] | GI50 [9] | GI50 [7] | GI50 [8] | GI50 [10] | TGI [10]
CCS(CC)(CC)CC1CCCC2=CCC(P(=O)(c3ccccc3)c3ccccc3)CC21 (stereo not drawn) | 22 µM | 25.4 µM | 24.4 µM | 26.3 µM | 23.2 µM | 25.5 µM | 33.8 µM | 39.9 µM |  |  |  |  |  |  |  |  |  |  | 
O=C(O)C(SC(=S)c1ccc(C(=S)SC(C(=O)O)c2ccccc2)cc1)c1ccccc1 (stereo not drawn) | > 100 µM | > 100 µM |  | > 100 µM | > 100 µM | > 100 µM | > 100 µM | > 100 µM | > 100 µM |  |  |  |  |  |  |  |  |  | 
CC(C)[C@H](N)C(=O)N1CCC[C@H]1B(O)O | > 100 µM | > 100 µM | > 100 µM | > 100 µM | > 100 µM |  | > 100 µM | > 100 µM | > 100 µM | > 100 µM | > 100 µM | > 100 µM | > 100 µM | > 100 µM | > 100 µM | > 100 µM | > 100 µM | > 100 µM | > 100 µM
COC1CC(OS(=O)(=O)c2ccc([N+](=O)[O-])cc2)C(OC(=O)c2ccccc2)C(C)O1 (stereo not drawn) | > 100 µM |  | > 100 µM | > 100 µM | > 100 µM | > 100 µM |  | > 100 µM | > 100 µM |  |  |  |  |  |  |  |  |  | 
Cc1ccc(Nc2n[nH]c(=S)s2)cc1C | > 100 µM | > 100 µM | > 100 µM | > 100 µM | > 100 µM |  | > 100 µM | > 100 µM | > 100 µM |  |  |  |  |  |  |  |  |  | > 100 µM
COc1ccc2c(c1)c(=O)oc1cc(OC/C(C)=N\O)ccc12 | > 100 µM | 42.9 µM | > 100 µM | > 100 µM | > 100 µM |  | > 100 µM | > 100 µM | > 100 µM | > 100 µM | 14.9 µM | > 100 µM | > 100 µM | 56.6 µM | > 100 µM | > 100 µM | > 100 µM | > 100 µM | > 100 µM
Cc1ccc2nc(NC(=O)C(=O)C(C#N)c3nc4ccccc4s3)sc2c1 (stereo not drawn) | > 100 µM | > 100 µM | 94.3 µM | > 100 µM | 90.9 µM |  | > 100 µM | 76.6 µM | 87.6 µM |  |  |  |  |  |  |  |  |  | 
CCOc1ccccc1N1C(=O)C(=O)C(c2nc3ccccc3o2)C(=O)C1=O | > 100 µM | > 100 µM | > 100 µM | > 100 µM |  | > 100 µM | > 100 µM | > 100 µM | > 100 µM |  |  |  |  |  |  |  |  |  | 
COc1cc(/C=C2/C(=O)N(C(=O)OCC(C)C)C(Cc3cc(OC)c(OC)c(C)c3OC)C(=O)N2Cc2ccccc2)c(OC)c(C)c1OC (stereo not drawn) | > 100 µM | > 100 µM | > 100 µM | > 100 µM | > 100 µM | > 100 µM | > 100 µM | > 100 µM | > 100 µM |  |  |  |  |  |  |  |  |  | 
CN1C(=Nc2ccccc2)SC1=Nc1ccccc1 | > 100 µM | 40.3 µM |  |  |  | > 100 µM | > 100 µM | > 100 µM | > 100 µM |  |  |  |  |  |  |  |  |  | 
CCc1cc(C(=O)OC)cn1C(=N)c1ccc(Cl)cc1 | > 100 µM | > 100 µM | > 100 µM | > 100 µM |  |  | > 100 µM | > 100 µM | > 100 µM |  |  |  |  |  |  |  |  |  | 
CCN(CC)c1c(C(=O)/C=C/c2ccc(OC)cc2)c(-c2ccccc2)nn(C)c1=O |  |  | > 100 µM | 78.4 µM | 25 µM | 44.7 µM | 38.7 µM | 49.9 µM | 60.8 µM |  |  |  |  |  |  |  |  |  | 
COc1ccc2n[se]nc2c1 | > 100 µM | > 100 µM | > 100 µM | > 100 µM | > 100 µM |  | > 100 µM | > 100 µM | > 100 µM |  |  |  |  |  |  |  |  |  | 
Cn1cc(C(=O)NCCC(=N)N)cc1NC(=O)C1=[N+](C)C=C(NC(=O)c2cccc(C(=O)NC3=CC(C(=O)Nc4cc(C(=O)NCCC(=N)N)cn4C)=[N+](C)C3)c2)C1 | > 100 µM | > 100 µM | > 100 µM | > 100 µM | > 100 µM | > 100 µM | > 100 µM | > 100 µM | > 100 µM |  |  |  |  |  |  |  |  |  | 
Clc1ccc(C2SCc3nc4ccccc4n32)c(Cl)c1 (stereo not drawn) | 28.8 µM | 34.8 µM |  | 28.1 µM | 29.6 µM | 39.1 µM | 33.8 µM | 39.6 µM | 22.2 µM |  |  |  |  |  |  |  |  |  | 
COc1ccc(C2=CC(c3ccc4c(c3)OCO4)c3c(c4ccccc4oc3=O)O2)cc1OC (stereo not drawn) | > 27.2 µM | > 21.4 µM | > 100 µM | > 100 µM | > 100 µM |  | > 100 µM |  | > 100 µM |  |  |  |  |  |  |  |  |  | > 100 µM
O=C([CH-]C(=O)c1ccccc1)c1ccccc1.O=C([CH-]C(=O)c1ccccc1)c1ccccc1.[La+3].[OH-].[OH3+] | 48.1 µM | 21.6 µM | 56.8 µM | 68 µM | 29.6 µM |  | 37.8 µM | > 100 µM | 46.5 µM | 16.1 µM | 5.02 µM | 17.4 µM | 18.4 µM | 2.99 µM | 16.3 µM | 15.1 µM | 5.24 µM |  | 
CN(CCCn1c2c(c3ccccc3c1=O)C(=O)c1ccccc1-2)CCCn1c2c(c3ccccc3c1=O)C(=O)c1ccccc1-2 | 9.46 µM | 5.21 µM | 24.8 µM |  |  |  | > 51.8 µM |  | > 73.2 µM | 0.385 µM | 1.74 µM | 2 µM |  |  | 21.6 µM | 27.6 µM | 0.335 µM | 0.29 µM | 
CCOc1ccc2c(c1)[n+]([O-])c(-c1ccc(Cl)cc1)c(N)[n+]2[O-] |  | > 100 µM | > 100 µM | > 100 µM |  | > 100 µM | > 100 µM | > 100 µM | > 100 µM |  |  |  |  |  |  |  |  |  | 
O=C1c2ccccc2C(O)(O)C1(O)C1(O)C(=O)c2ccccc2C1(O)O (stereo not drawn) |  | 72.3 µM | > 100 µM | 30.6 µM | 81.8 µM |  | > 100 µM |  |  |  |  |  |  |  |  |  |  |  | > 100 µM
Cc1ccc(S(=O)(=O)OC2CSS(=O)CC2OS(=O)(=O)c2ccc(C)cc2)cc1 (stereo not drawn) | 30.9 µM | 36.2 µM | 25.7 µM | 28.5 µM | 20.8 µM | 8.15 µM |  | 21.1 µM | 28.2 µM |  |  |  |  |  |  |  |  |  | 
Cc1cc(=O)n(-c2ccccc2C)c(C)n1 | > 100 µM | > 100 µM | > 100 µM | > 100 µM | > 100 µM |  | > 100 µM | > 100 µM | > 100 µM |  |  |  |  |  |  |  |  |  | 
